For assay [1], the system named is T18 murine breast cancer cells. The assay is described as follows: Test (b): growth inhibition of T18 cells in culture under oxic conditions (MTT endpoint). The settings on record: Mus musculus, 2 hours treatment, 90% air and 10% CO2, grown on for 6 days. It is filed as cell-based. As to the method:
(b) An in vitro assay which determines the ability of a test compound to inhibit the growth of T18 murine breast cancer cells in cell culture under oxic conditions. The cells were grown in monolayer in 96 well plates and treated with compounds for 2 hours under an atmosphere of 90% air and 10% CO2. The cells were then grown on for 6 days at which time the extent of proliferation was assessed using a 3-(4,5-dimethylthiazol-2-yl)-2,5-diphenyltetrazolium bromide (MTT) endpoint. The test is similar to that described in J. Immunological Methods, 1983, 65, 55-63. The detailed methodology was as follows.
T18 murine breast tumour cells (derived from a spontaneous mammary tumour in the Balb/c mouse colony at Zeneca Pharmaceuticals, Mereside, Macclesfield, UK) were harvested from an exponentially growing monolayer culture. The cells were counted, diluted in RPMI 1640 culture medium (Gibco BRL, Life Technologies, Paisley, UK; supplemented with 15% foetal calf serum, glutamine, pyruvate, penicillin and streptomycin), and transferred to 96 well plates at 500 cells per 50 μl per well. […] The supernatant culture medium containing excess MTT was removed and DMSO (100 μl) was added to solubilise the formazan, the concentration of which was measured by determining the optical density at 540 nm. […]

For assay [2], the system named is T18 murine breast tumours. As to the kind of experiment: Test (d): in vivo growth delay of T18 tumours. Set-up: species or system Balb/c mice. The settings on record: single dose of approximately 50 mg/kg intraperitoneally. The text has this: (d) An in vivo assay in a group of Balb/c mice which determines the ability of a test compound to delay the growth of T18 murine breast tumours. The detailed methodology was as follows:
T18 murine breast tumour tissue was routinely maintained by animal to animal passage. To prepare a batch of tumours for an experiment, tumour tissue was removed from several donor Balb/c mice and placed in saline. Outer tissue was removed and healthy looking regions of tumour were cut into approximately 1 mm pieces and implanted subcutaneously by trocar into the left flanks of anaesthetised female Balb/c mice. After 2-3 weeks, most of the implants had grown to approximately 8 mm in diameter. The animals were placed randomly into groups of 6-7, rejecting any with very large, or small, tumours. Each test compound was dissolved in DMSO and diluted with Cremophor EL followed by saline, to give a 1:1:3 mixture of DMSO, Cremophor EL and saline. Each test compound was administered by the intraperitoneal route as a single bolus dose (0.1 ml per 10 g body weight of each animal). Control animals received vehicle alone. All mice were weighed daily and the dimensions (length and width) of each tumour were measured every 2-3 days using vernier calipers. […] Growth curves were constructed and the effect of treatment was assessed using a growth delay endpoint.

The test system of assay [3] is spheroidal aggregates of EMT6 murine breast cancer cells. As to the kind of experiment: Test (c): growth inhibition of spheroidal aggregates of EMT6 cells in oxygenated culture medium. It is filed as cell-based. The settings on record: Mus musculus, 2 hours treatment, stasis of spheroid growth during 2-3 weeks, read-out: stasis ED50. As to the method:
(c) An in vitro assay which determines the ability of a test compound to inhibit the growth in an oxygenated culture medium of spheroidal aggregates (˜400 microns in diameter) of EMT6 murine breast cancer cells. As the oxygen diffusion distance through tissue is approximately 120-150 microns, such spheroids have a chronically hypoxic central population of cells and a well oxygenated outer layer of cells. The multicellular spheroids were treated with test compounds for 2 hours as a well oxygenated suspension culture. The spheroids were subsequently washed free of test compound and selected spheroids were transferred to static culture so that the effect of treatment on volume growth could be measured. […]
EMT6 murine breast cells (obtained from P. R. Twentyman, MRC Oncology and Radiotherapeutics Unit, Cambridge, UK) were harvested from exponentially growing monolayer cultures and approximately 1×10^6 cells were used to inoculate a 500 ml spinner culture vessel containing Eagles minimal essential medium (200 ml; supplemented with 10% foetal calf serum, glutamate, non-essential amino acids, penicillin and streptomycin). […] The area of each spheroid was measured using an image analyser and the 24-well plates were transferred to a CO2 incubator at 37° C. The spheroids were then re-measured every 2-3 days for up to 21 days, with fresh culture medium (250 μl) being added to each well every 3 days. […]

Results on one molecule are retold here after US6346633B1, “Anti-tumuor agents” (AstraZeneca AB, priority 1998, dated 2002).

SMILES strings stand for the structures.

A word on the IC50: it is the concentration at which inhibition is half-maximal. A lower IC50 goes with greater potency in that assay. In assay [1], `COCCC1=C(C)C(=O)C(C)=C(C(C)(C)CC(=O)Oc2ccc(N(CCCl)CCCl)cc2)C1=O` [Example 2, 4-[bis(2-chloroethyl)amino]phenyl 3-[2-(2-methoxyethyl)-3,5-dimethyl-1,4-benzoquinonyl]-3-methylbutyrate] yielded an IC50 of 4.8 µM. Moreover, in assay [2], the growth delay result is “approximately 12 days”. The EC50 in assay [3] is roughly 6 µM.
